We go through one molecule from patent US20160287615A1, “NOVEL ENCAPSULATION OF FLUORESCENT, PHOTO-SENSITIVE, OR OXYGEN-SENSITIVE ACTIVE INGREDIENT FOR TOPICAL APPLICATION” (BioPharmX, Inc., priority 2015, published 2016).

For data set [1] the following is noted: 10 h.
Procedure: Additional data was collected with a high performance liquid chromatography (HPLC) machine for two samples. The first sample was minocycline HCl and the second sample comprised a plurality of microparticles that contained minocycline HCl. […] Following exposure of both samples to ultraviolet illumination for 10 hours, an HPLC machine was used to assess the level of degradation of the minocycline active ingredient in both samples.
A short description of data set [2]: Fluorescence microscopy of compositions under UV fluorescent lamp illumination. The following applies: 450 nm excitation wavelength. It is filed as physicochemical. From the text:
FIGS. 4a and 4b are images of the fluorescence given off by different compositions in response to illumination with a UV fluorescent lamp. The images of FIGS. 4a and 4b were captured using a digital camera connected to a microscope.
FIGS. 5a and 5b are images of the fluorescence given off by different compositions in response to illumination with a UV fluorescent lamp. The images of FIGS. 5a and 5b were captured using a digital camera connected to a microscope.
The composition includes minocycline contained in a plurality of Mg2CO3 tubular microparticles with a concentration of 1:100 of minocycline to Mg2CO3 tubular microparticles (10 milligrams of minocycline per gram of Mg2CO3 tubular microparticles).
The composition shown in FIG. 4b was made by dissolving minocycline HCl in methyl alcohol at a concentration of 10 mg/ml. A plurality of tubular microparticles comprising Mg2CO3 was added to the solution. Microscope slides were prepared with minocycline HCl (shown in FIG. 4a) and the prepared composition with a plurality of tubular microparticles described in this paragraph (shown in FIG. 4b).
Fluorescence can be an indicator of photo-initiated degradation of some antibiotics, including minocycline.

Structures can show the parent of a compound that is named as a salt.

For the molecule `CN(C)c1ccc(O)c2c1C[C@H]1C[C@H]3[C@H](N(C)C)C(O)=C(C(N)=O)C(=O)[C@@]3(O)C(O)=C1C2=O` [minocycline HCl], the “degradation of the minocycline active ingredient” value in data set [1] is reported as 4.3%. Further, the fluorescence emission wavelength entry in data set [2] is “approximately 670 nm”. Besides, in data set [2] (UV fluorescent lamp illumination, microscope magnification at 10 times), the “fluorescence observed by fluorescence microscopy” value is “showed fluorescence emission”.
